Assay results published in patent US5437980A, “Phenanthridium dye staining of nucleic acids in living cells” (Molecular Probes, Inc., priority 1993, dated 1995).

Tests used:
Format in all cases: cell-based
[1] = test system: 3T3 mouse fibroblast cells; assay: Staining of nuclei in adherent cultured mammalian cells (Example 9); settings: 2 μM dye
Description: 3T3 mouse fibroblast cells are grown on coverslips in calf serum-supplemented DMEM medium. The coverslips of cells are washed in HBSS+. 5-DAPP/LIVE dye solutions are prepared to a final concentration of 2 μM in DMEM without serum. One group of 3T3 cells is treated with 300 μM chloroquine (group 1). These cells and control cells (group 2) not treated with chloroquine are incubated at 37° C. for 30 min. The two groups of cells are transferred to DMEM plus 5-DAPP/LIVE. The cells are incubated in the dye-containing medium for 30 min at room temperature and are subsequently washed in HBSS+and viewed by epifluorescence microscopy using a long-pass fluorescein or a rhodamine filter set.

[2] = test system: rainbow trout gonad cells (RTG-2); assay: Staining followed by fixation (Example 13); settings: 1 μM, 30 min, room temperature
Description: Adherent rainbow trout gonad cells (RTG-2) are grown at 20° C. until about 25% confluent. The cells are labeled by incubation in HBSS- containing 1 μM hexidium at room temperature for 30 min. The cells are subsequently washed free of hexidium with HBSS-, followed by phosphate-buffered saline, pH 7.4 (PBS), and fixed in 2% formaldehyde in PBS for 15 min at room temperature. Cell nuclei and cytoplasmic fluorescence are observed in the fluorescence microscope using fluorescein long-pass or rhodamine filter sets.

[3] = test system: tissue culture cells; assay: Entry into / staining pattern of tissue culture cells
Source text: In some tissue culture cells, the pattern of staining is different from that observed in plant cells or bacteria. In the former case, cells are usually loaded with a brief pulse of dye, followed by a chase of buffered saline solution. These cells show a pattern of staining first in numerous intracellular compartments; e.g. lysosomes. In addition to staining these organelles first, the dyes also undergo a spectral shift to shorter wavelengths when associated with this "early-labeled compartment." If the same cells are exposed to pulses of higher concentrations of the 5-DAPP/LIVE dyes, the staining appears in the mitochondria (tubular structures that are labeled with rhodamine 123) and then, finally, in the nucleus, where it stains the nucleoli very brightly. Nucleoli are the most prominently stained area of higher eukaryotic cells, while the nuclei and cytosol usually stain in a hazy or punctate pattern in these cells. […] In plant tissues distinct nuclei tend to label uniformly, but there is frequently significant binding of the dye to cell walls. The plant cells are usually dark except for cell walls and nuclei. The characteristic binding morphology obtained using the 5-DAPP/LIVE dyes thus makes them useful in certain circumstances for identifying the type of cell in a mixed population of cells.

Structure (SMILES): CCCCCC[n+]1c(-c2ccccc2)c2cc(N)ccc2c2ccc(N)cc21 [hexidium]
- staining distribution, chloroquine-treated cells ([1]; group 1, 300 μM chloroquine): stained throughout, but with a greater relative intensity of staining in the nucleus
- staining distribution, control cells ([1]; group 2, no chloroquine): relatively equal staining in the nucleus and cytoplasm
- color of nucleus and cytoplasm ([1]; one half hour, long-pass fluorescein filter (red with rhodamine excitation)): orange
- difference between live loaded cells and cells fixed with 2% formaldehyde [2]: essentially no difference
- staining of cells loaded to equilibrium / staining pattern [3]: both intense cytoplasmic and nuclear staining
